Results on 1 compound are retold here after patent publication US8012717B2, “Method for the production of cladribine” (Explora Laboratories S.A., priority 2006, dated 2011).

This data set is classed as physicochemical. As for the experimental part:
0.42 g (equal to 2.5 mMoles) of 2-chloroadenine were suspended in 50 ml of DMF and heated while being stirred. Aliquots of DMF were added until a complete hot solubilisation was obtained. 100 ml of solvent were necessary to obtain the solubilisation of the 2-chloroadenine.
A solubilisation test was also carried out of 2-chloroadenine in 25% KOH in order to increase the solubilisation. 4.05 grams of 2-chloroadenine were resuspended in KOH being stirred. Aliquots of (25% w:v) KOH were added until complete solubilisation was obtained. Even after the addition of 100 ml of 25% KOH, the 2-chloroadenine remained practically undissolved.

As to `Nc1nc(Cl)nc2nc[nH]c12` [2-chloroadenine], the “solubility in 25% KOH” value is reported as “practically insoluble” and the “volume of solvent necessary to obtain the solubilisation” value was found to be 100 mL.
